Assay results as given in patent publication US10618869B2, “Oligo-benzamide compounds and their use” (The Board of Regents of the University of Texas System, priority 2010, dated 2020).
pKd: −log10 of the molar value. Entries after “also recorded” stand apart in the source; their conditions may differ.

Assays:
[1] = test system: PCa cell lines that contain AR; test: DHT-induced proliferation of prostate cancer cells (MTT assay); type: cell-based; conditions: DHT-induced proliferation, MTT assay; structure-function series
Procedure: FIGS. 10A-E. D2 blocks proliferation of prostate cancer cells in vitro and in vivo (a) Effect of pretreatment with 100 nM of D1 and D2 on DHT-induced proliferation in multiple prostate cancer cell lines in MTT assay. Numbers are normalized to a baseline of 100, which represents the untreated rate of proliferation. (b) Effect of pretreatment with 100 nM of D1 and D2 on DHT-induced proliferation in LNCaPcells on a Cyquant assay. (c) Dose dependent curve of D2 on proliferation of LAPC4 cells. (d) Rescue of DHT induced proliferation by overexpression of PELP1 following suppression of DHT induced proliferation with 100 nM of D2. (e). Effect of direct intratumoral injections of D1 and D2 on the proliferation of prostate cancer xenografts in animal models: Following establishment of subcutaneous xenografts in animal models, daily direct intratumoral injections of D1 and D2 were performed. Bioluminesence imaging was used to track the growth of the tumors and the effect of D1 and D2 quantitated as shown in the graph.
The importance of PELP1 and AR interaction on DHT-mediated proliferation of prostate cancer cells were confirmed using rescue experiments, where D2 suppression of DHT-mediated proliferation was overcome by overexpression of PELP1 in LNCaP PCa cells.
In this experiment, cells were plated (2-10×10^3/well) in 96 well plates and subjected to androgen deprivation for 48 hours with phenol-red free RPMI and 1% charcoal stripped fetal bovine serum (CSF). Cells were then treated with either ethanol, EGF or DHT as a positive control for 48 hours. Peptidomimetics were added 2 hours prior to treatment. Cell proliferation was measured using the MTT colorimetric assay.
Cells were plated (2-10×10^3/well) in 96-well plates and subjected to androgen deprivation for 48 hours with phenol-red free RPMI and 1% charcoal stripped fetal bovine serum (CSF). Cells were then treated with either ethanol or DHT as a positive control for 48 hours Peptidomimetics were added 2 hours prior to treatment. Cell proliferation was measured using the MTT colorimetric assay.

human AR = target: T1, human AR (Homo sapiens, UniProt P10275); conditions: LXXLL motif-bound AF-2 interface of human AR; PLoS Biology 2:e274, 2004; read-out: Kd of LXXLL peptide; cited from earlier work
T1 sequence (P10275 1-920): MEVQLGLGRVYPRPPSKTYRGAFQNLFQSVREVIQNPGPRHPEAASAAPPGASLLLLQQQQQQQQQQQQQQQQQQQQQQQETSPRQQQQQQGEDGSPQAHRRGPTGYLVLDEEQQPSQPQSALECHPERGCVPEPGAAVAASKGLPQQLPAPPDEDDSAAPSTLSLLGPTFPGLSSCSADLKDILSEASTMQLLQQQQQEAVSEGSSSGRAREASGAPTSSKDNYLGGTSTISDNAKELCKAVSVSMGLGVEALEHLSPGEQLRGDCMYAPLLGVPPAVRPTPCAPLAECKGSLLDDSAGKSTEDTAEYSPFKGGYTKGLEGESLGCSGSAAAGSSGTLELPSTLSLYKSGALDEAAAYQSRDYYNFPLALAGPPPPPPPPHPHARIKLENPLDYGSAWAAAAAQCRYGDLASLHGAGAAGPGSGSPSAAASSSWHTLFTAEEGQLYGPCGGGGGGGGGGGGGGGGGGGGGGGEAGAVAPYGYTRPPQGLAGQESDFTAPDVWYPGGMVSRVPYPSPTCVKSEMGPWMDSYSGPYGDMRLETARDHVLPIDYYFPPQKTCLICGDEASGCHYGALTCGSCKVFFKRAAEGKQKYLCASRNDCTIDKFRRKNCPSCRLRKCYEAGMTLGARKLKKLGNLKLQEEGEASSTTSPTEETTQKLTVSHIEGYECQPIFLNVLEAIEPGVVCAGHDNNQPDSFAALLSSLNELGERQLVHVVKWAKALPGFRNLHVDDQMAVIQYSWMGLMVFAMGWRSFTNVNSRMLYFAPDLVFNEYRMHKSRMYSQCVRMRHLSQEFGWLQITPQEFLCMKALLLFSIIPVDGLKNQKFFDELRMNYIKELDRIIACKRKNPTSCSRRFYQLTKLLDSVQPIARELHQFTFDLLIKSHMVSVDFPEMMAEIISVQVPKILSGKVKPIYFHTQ

Compound | activity on the proliferation of prostate cancer cells (FIGS. 17, 19A-N) [1] | pKd (human AR)
CC(C)COc1cc(C(=O)Nc2ccc(C(N)=O)cc2OCCc2ccc3ccccc3c2)ccc1NC(=O)c1ccc([N+](=O)[O-])c(OCC(C)C)c1 [TK6-R] | good activity | 
COC(=O)c1ccc(NC(=O)c2ccc([N+](=O)[O-])c(NCC(C)C)c2)c(NCC(C)C)c1 [D2-47] | good activity | 
CC(C)COc1cc(C(=O)Nc2ccc(C(N)=O)cc2OCC(C)C)ccc1NC(=O)CCC(=O)O [D2-12] | good activity | 
CC(C)COc1cc(C(=O)Nc2ccc(C(=O)N(C(C)C)C(C)C)cc2OCC(C)C)ccc1NC(=O)CN [D2-23] | good activity | 
SSRGLLWDLLTKDSR [LXXLL peptide co-crystallised with human AR AF-2] |  | 5.74
CC(C)COc1cc(C(=O)Nc2ccc(C(=O)NCCCCO)cc2OCC(C)C)ccc1NC(=O)CN [D2-26] | good activity | 
C=C(C)COc1cc(C(=O)OC)ccc1NC(=O)c1ccc([N+](=O)[O-])c(OCC(=C)C)c1 [D29] | good activity | 
COC(=O)c1ccc(NC(=O)c2ccc(NC(=O)CN)c(OCC(C)C)c2)c(OCC(C)C)c1 [D2-4] | maximal activity; also recorded: good activity | 
